One data set has as its system HUVEC monolayers. The experiment in a line: Inhibition of macromolecule (HRP) permeability of thrombin-stimulated HUVEC monolayers. The note with it: for IC50: Homo sapiens, 1 h, HUVEC, 1 μM RP73401, 10 μM Motapizone, 1 mM SNP or 100 nM ANP, HRP passage after 60 min, read-out: Inhibition of SNP- or ANP-induced permeability, −log IC50 (converted); for IC50 / Thrombin-induced increase of HRP permeability (hyperpermeability): 1 U/ml thrombin; for Thrombin-induced increase of HRP permeability (hyperpermeability): 10 μM Motapizone (PDE3) together with 1 μM RP73401 (PDE4). Type of data set: cell-based, human. How it is done: The procedure to measure macromolecule permeability of endothelial cell monolayers followed the method described by Langeler & van Hinsbergh (1988) with modifications. Human umbilical vein endothelial cells were isolated from umbilical cords according to standard procedures (Jaffe et al. 1973) and cultured in endothelial cell basal medium (EBM) supplemented with 2% FCS, 0.5 ng/ml VEGF, 10 ng/ml bFGF, 5 ng/ml EGF, 20 ng/ml Long R3 IGF-1, 0.2 μg/ml hydrocortisone, 1 μg/ml ascorbic acid, 22.5 μg/ml heparin, 50 μg/ml gentamicin, 50 ng/ml amphotericin B (EGM2 purchased from Promocell GmbH, Heidelberg, Germany). At confluency, cells were trypsinized and replated at 73000 cells per well on 3 μm polycarbonate filter Transwell inserts (Costar GmbH, Bodenheim, Germany) precoated with 10 μg cm^2 −1 Fibronectin (Sigma, Taufkirchen, Germany). HUVECs were cultured in EGM2 (100 μl in the upper wells and 600 μl in the lower wells) over four days prior the experiments and medium was changed every other day. At the day of the experiment culture medium was replaced by M199 with 1% human serum albumin. Endothelial cells were preincubated with cyclic nucleotide modifiers (the selective PDE3 inhibitor motapizone, the selective PDE4 inhibitor RP73401, the cGMP generators ANP or SNP and PDE2 inhibitors) for 15 min. HUVECs were then stimulated with Thrombin (1 U ml^−1) (Sigma, Taufkichen, Germany) and horsh radish peroxidase (5 μg/ml) (Sigma, Taufkirchen, Germany) as the macromolecule marker protein was added to the upper wells. Following 1 h incubation time Transwells were removed and the activity of horsh radish peroxidase that penetrated the endothelial cell monolayer was measured in the lower wells with the 3,3′, 5,5′-tetramethylbenzidine liquid substrate system from Sigma (Taufkirchen, Germany).
In parallel, compounds according to the invention can inhibit Thrombin-induced permeability of HUVEC monolayers for horsh radish peroxidase (HRP) as a macromolecule marker. […] The concentration-dependent inhibition of HRP permeability at different concentrations was assessed from the percent inhibition in the presence and absence of the PDE2 inhibitors and in the presence of 1 μM RP73401, 10 μM Motapizone and 100 nM ANP.
HUVEC cells on 3 μm polycarbonate filters (Transwells) were preincubated with 1 μM RP73401 (to block PDE4) and 10 μM Motapizone (to block PDE3), 1 mM SNP or 100 nM ANP and 1 μM of test sample over 15 min and then stimulated with 1 U/ml thrombin. HRP passage into the lower wells was assessed after 60 min.

Entries after “also recorded” stand apart in the source; their conditions may differ. Ends that are not written are not given here.

Turning to `COCC(=O)Nc1ccc(Nc2nn3c(-c4ccc(OC)cc4)nnc3c3ccccc23)cc1` [Compound 4, 2-Methoxy-N-{4-[3-(4-methoxy-phenyl)-[1,2,4]triazolo[3,4-a]phthalazin-6-ylamino]-phenyl}-acetamide], the IC50 – broadly, the concentration at which inhibition is half-maximal – in the data set with HUVEC monolayers is 0.002 to 0.0631 µM.
For `O=C(Nc1ccc(Nc2nn3c(-c4ccccc4Br)nnc3c3ccccc23)cc1)C1CCCCN1` (centres unmarked) [Compound 30, Piperidine-2-carboxylic acid {4-[3-(2-bromo-phenyl)-[1,2,4]triazolo[3,4-a]phthalazin-6-ylamino]-phenyl}-amide], the half-maximal inhibitory concentration (IC50) with HUVEC monolayers is 0.002 to 0.0631 µM.
`COc1ccc(-c2nnc3c4ccccc4c(Nc4cccc(NC(=O)C5CCN(C(C)=O)CC5)c4)nn23)cc1` [Compound 54, 1-Acetyl-piperidine-4-carboxylic acid {3-[3-(4-methoxy-phenyl)-[1,2,4]triazolo[3,4-a]phthalazin-6-ylamino]-phenyl}-amide]: the IC50 in the data set on HUVEC monolayers is 0.002 to 0.0631 µM.
For `COc1ccc(-c2nnc3c4ccccc4c(Nc4cccc(C(N)=O)c4)nn23)cc1` [Compound 109, 3-[3-(4-Methoxyphenyl)-[1,2,4]triazolo[3,4-a]phthalazin-6-ylamino]-benzamide], the melting point (commonly the temperature of the solid-liquid transition) is 296 °C.
Compound `CNC(=O)c1cccc(Nc2nn3c(-c4ccc(OC)cc4)nnc3c3ccccc23)c1` [Compound 110, 3-[3-(4-Methoxyphenyl)-[1,2,4]triazolo[3,4-a]phthalazin-6-ylamino]-N-methylbenzamide] returned a melting point of 316 °C.
Turning to `COc1ccc(-c2nnc3c4ccccc4c(Nc4ccc(NC(=O)C(F)(F)F)cc4)nn23)cc1` [Compound 17, 2,2,2-Trifluoro-N-{4-[3-(4-methoxy-phenyl)-[1,2,4]triazolo[3,4-a]phthalazin-6-ylamino]-phenyl}-acetamide], the IC50 in the data set on HUVEC monolayers is 0.002 to 0.0631 µM.
On to `COc1ccc(-c2nnc3c4ccccc4c(Nc4ccc(NC(=O)C5CCCCN5)cc4)nn23)cc1` (centres unmarked) [Compound 12, Piperidine-2-carboxylic acid {4-[3-(4-methoxy-phenyl)-[1,2,4]triazolo[3,4-a]phthalazin-6-ylamino]-phenyl}-amide], for which the half-maximal inhibitory concentration (IC50) in the data set with HUVEC monolayers is 0.002 to 0.0631 µM.
For `COc1ccc(-c2nnc3c4ccccc4c(Nc4ccc(NC(=O)C5CC5)cc4)nn23)cc1` [Compound 18, Cyclopropanecarboxylic acid {4-[3-(4-methoxy-phenyl)-[1,2,4]triazolo[3,4-a]phthalazin-6-ylamino]-phenyl}-amide], the 50% inhibitory concentration (IC50) with HUVEC monolayers is 0.002 to 0.0631 µM.
As for `COc1ccc(-c2nnc3c4ccccc4c(Nc4ccc(NC(=O)c5c[nH]cn5)cc4)nn23)cc1` [Compound 11, 1H-Imidazole-4-carboxylic acid {4-[3-(4-methoxy-phenyl)-[1,2,4]triazolo[3,4-a]phthalazin-6-ylamino]-phenyl}-amide], the IC50 with HUVEC monolayers was 0.002 to 0.0631 µM.
As for `COc1ccc(C(=O)Nc2c(Cl)cncc2Cl)cc1OC1CCCC1` [RP73401, reference compound], the “Thrombin-induced increase of HRP permeability (hyperpermeability)” value in the data set with HUVEC monolayers is “completely abolished; also recorded: completely blocked”.
For the compound `CNC(=O)c1ccc(Nc2nn3c(-c4ccc(OC)cc4)nnc3c3ccccc23)cc1` [Compound 85, 4-[3-(4-Methoxy-phenyl)-[1,2,4]triazolo[3,4-a]phthalazin-6-ylamino]-N-methyl-benzamide], in the data set with HUVEC monolayers, the concentration for half-maximal inhibition (IC50) was 0.002 to 0.0631 µM.
Regarding `COc1ccc(-c2nnc3c4ccccc4c(Nc4cccc(NC(C)=O)c4)nn23)cc1` [Compound 66, N-{3-[3-(4-Methoxyphenyl)-[1,2,4]triazolo[3,4-a]phthalazin-6-ylamino]-phenyl}-acetamide], the melting point turned out to be 295 °C.
For `COc1ccc(-c2nnc3c4ccccc4c(Nc4cccc(NC(=O)C5CC5)c4)nn23)cc1` [Compound 38, Cyclopropanecarboxylic acid {3-[3-(4-methoxy-phenyl)-[1,2,4]triazolo[3,4-a]phthalazin-6-ylamino]-phenyl}-amide], the half-maximal inhibitory concentration (IC50) with HUVEC monolayers was 0.002 to 0.0631 µM.
With `CC1CC(=O)NN=C1c1cc(-n2ccnc2)cs1` (centres unmarked) [Motapizone, reference compound], the “Thrombin-induced increase of HRP permeability (hyperpermeability)” value with HUVEC monolayers was “completely abolished; also recorded: completely blocked”.
Regarding `COc1ccc(-c2nnc3c4ccccc4c(Nc4ccc(NC(=O)c5ccoc5)cc4)nn23)cc1` [Compound 21, Furan-3-carboxylic acid {4-[3-(4-methoxy-phenyl)-[1,2,4]triazolo[3,4-a]phthalazin-6-ylamino]-phenyl}-amide], the IC50 with HUVEC monolayers is 0.002 to 0.0631 µM.
For `COCCC(=O)Nc1ccc(Nc2nn3c(-c4ccc(OC)cc4)nnc3c3ccccc23)cc1` [Compound 5, 3-Methoxy-N-{4-[3-(4-methoxy-phenyl)-[1,2,4]triazolo[3,4-a]phthalazin-6-ylamino]-phenyl}-propionamide], the IC50 in the data set on HUVEC monolayers is 0.002 to 0.0631 µM.
Compound `COc1ccc(-c2nnc3c4ccccc4c(Nc4ccc(NC(=O)c5ccccc5)cc4)nn23)cc1` [Compound 33, N-{4-[3-(4-Methoxyphenyl)-[1,2,4]triazolo[3,4-a]phthalazin-6-ylamino]-phenyl}-benzamide] displayed a melting point of 323 °C.
Regarding `COc1ccc(-c2nnc3c4ccccc4c(Nc4ccc(NC(=O)CN5CCOCC5)cc4)nn23)cc1` [Compound 25, N-{4-[3-(4-Methoxy-phenyl)-[1,2,4]triazolo[3,4-a]phthalazin-6-ylamino]-phenyl}-2-morpholin-4-yl-acetamide], the IC50 in the data set on HUVEC monolayers is 0.002 to 0.0631 µM.
With “ANP: cGMP generator used to augment cGMP and activate PDE2 (SLRRSSCFGGRMDRIGAQSGLGCNSFRY; ends and bridges not checked; cysteine pairing not given here; UniProt P01160 124-151, looked up) [reference compound]”, the “Effect on the inhibition of permeability by PDE3 and 4 inhibition” value in the data set with HUVEC monolayers (ANP (100 nM) or SNP (1 mM) in additional presence of 10 μM Motapizone and 1 μM RP73401) is “partially reversed”.
With `COc1ccc(-c2nnc3c4ccccc4c(Nc4ccc(N)cc4)nn23)cc1` [Compound 1, N-[3-(4-Methoxyphenyl)-[1,2,4]triazolo[3,4-a]phthalazin-6-yl]-benzene-1,4-diamine], the melting point is 295 °C.

These data come from patent US7851472B2, “Triazolophthalazines” (NYCOMED GmbH, priority 2004, dated 2010).
